Entries after “also recorded” stand apart in the source; their conditions may differ.
Key:
SARS-CoV-2 infection = settings: cited from earlier work; for benefit to COVID-19 patients: clinical trials, oral (camostat), intravenous (nafamostat)
[1] = tested on: pseudotyped particles bearing the SARS-CoV-2 B.1 S protein; type: cell-based; settings: TMPRSS2-independent (cathepsin L-dependent) entry
[2] = tested on: particles pseudotyped with the glycoprotein of vesicular stomatitis virus (VSV-G); type: cell-based
[3] = tested on: particles pseudotyped with the glycoprotein of vesicular stomatitis virus (VSV-G); type: cell-based; remark: listed apart in the source
[4] = tested on: pseudotyped particles bearing the SARS-CoV-2 B.1 S protein; type: cell-based; settings: TMPRSS2-dependent entry
SARS-CoV-2 = tested on: SARS-CoV-2; design: method as in PMID 32142651, PMID 33676899, PMID 33393462, PMID 32312781, PMID 35382133; settings: cell culture; cited from earlier work
salmon testes DNA = experiment: UV-thermal DNA denaturation with salmon testes DNA; settings: compound to DNA base ratio 0.1, phosphate buffer pH 7
Method: UV thermal denaturation experiments
Thermal melting experiments were conducted with a Varian Cary 300 Bio spectrophotometer equipped
with a 6×6 multicell temperature-controlled block. Temperatures were monitored with a thermistor
inserted into a 1 cm quartz cuvette containing the same volume of water as in the sample cells. Absorbance
changes at 260 nm were monitored from a range of 30 °C to 90 °C with a heating rate of 1 °C min -1 and a
data collection rate of five points per °C. The salmon sperm DNA was purchased from Sigma Aldrich
(extinction coefficient ε260= 6600 M-1 cm-1). A quartz cell with a 1 cm path length was filled with a 1 mL
solution of DNA or DNA-compound complex.
were prepared in a phosphate buffer ([10 mM K2HPO4/KH2PO4], adjusted to pH 7) so that a compound to
DNA base ratio of 0.1 was obtained. The thermal melting temperatures of the duplex or duplex-compound
complex obtained from the first derivative of the melting curves are reported.

MCF-10A cells = experiment: AlamarBlue cell viability assay; settings: concentrations up to 100 µM
poly(dA•dT)2 = tested on: poly(dA•dT)2; design: method as in PMID 18247550; settings: DNA oligo rich in AT pairs; cited from earlier work

N=C(N)c1ccc2cc(OC(=O)c3ccc(N=C(N)N)cc3)ccc2c1 [Nafamostat, nafamostat]
benefit to COVID-19 patients (SARS-CoV-2 infection): little if any benefit

aprotinin
clinical benefit in COVID-19 patients (SARS-CoV-2 infection; aerosolized): of clinical benefit
tolerability in COVID-19 patients (SARS-CoV-2 infection; aerosolized): well tolerated

CCN(CC)CCCC(C)Nc1ccnc2cc(Cl)ccc12 (centres unmarked) [chloroquine]
SARS-CoV-2 S protein-driven entry into Vero76 cells [1]: reduced by the highest concentration
VSV-G-driven entry into Vero76 cells [2]: reduced by the highest concentration
VSV-G-driven entry into Calu-3 cells [3]: reverse observation

CN(C)C(=O)COC(=O)Cc1ccc(OC(=O)c2ccc(NC(=N)N)cc2)cc1 [Camostat, camostat]
SARS-CoV-2 S protein-driven entry into Vero76 cells [1]: not inhibited
VSV-G-driven entry into Vero76 cells [2]: not inhibited
SARS-CoV-2 S protein-mediated entry into Calu-3 cells [4]: inhibited
VSV-G-driven entry into Calu-3 cells [3]: reverse observation
inhibition of SARS-CoV-2 infection (SARS-CoV-2): inhibit SARS‐CoV‐2 infection with high efficiency
benefit to COVID-19 patients (SARS-CoV-2 infection): little if any benefit

N=C(N)Nc1ccc(NC(=S)Nc2ccccn2)cc1 [Compound 20]
ΔTm (salmon testes DNA): −0.25 °C

N=C(N)Nc1ccc(NC(=S)Nc2ccccc2)cc1 [Compound 2]
IC50 (MCF-10A cells): could not be found
cytotoxicity (cell death) (MCF-10A cells; 72 hours): no cytotoxicity; also recorded: no significant cell‐death was detected
ΔTm (salmon testes DNA): 0.65 °C

N=C(N)Nc1ccc(NC(=S)Nc2ccc(NC(=N)N)cc2)cc1 [hit‐compound]
ΔTm (poly(dA•dT)2): 23.0 °C

Source: paper PMC12812011 (Chemmedchem, 2025)
